Results from patent US8258138B2, “Potassium channel blockers” (Xention Limited, priority 2008, dated 2012).
Values belong to the molecule of their own block, whether it stands above or below them.

Key:
hKv1.5 = hKv1.5 (Homo sapiens, UniProt P22460); assay: Kv1.5 Autopatch electrophysiology (whole cell patch-clamp); format: cell-based; conditions: compound at 1 μM; room temperature (22-24° C.); total charge during step to 0 mV; read-out: hKv1.5 % inh.
Procedure: Kv1.5 Autopatch Electrophysiology Method
The external bathing solution contained (in mM): 150 NaCl, 10 KCl, […], 3 MgCl2, 1 CaCl2, 10 HEPES, pH 7.4. Patch pipettes were filled with an electrode solution of composition (in mM): 160 KCl, 0.5 MgCl2, 10 HEPES, 1 EGTA, pH 7.4 with KOH.
Compounds were dissolved in DMSO (100%) and made up in the external bather at a concentration of 1 μM. All experiments were conducted at room temperature (22-24° C.).
A cell suspension (10 ml), with a density of 100,000 cells/ml, was aliquoted into a 15 ml centrifuge tube and transferred to an incubator (37° C., 5% CO2) for approximately one hour before use. Following 60 min incubation, a tube was taken and centrifuged at 1000 rpm for 4 mins at room temperature. 9.5 ml supernatant was thence discarded, leaving a cell pellet at the bottom of the tube. The pellet was then resuspended using 100 μl of cold (4° C.), filtered (0.22 μm), 0.2% BSA/bather solution (0.02 g BSA/10 ml bather). The bottom of the tube was manually agitated gently until the solution became cloudy with cells. The 100 μl cell resuspension solution was then stored on the bench at 4° C. (using a Peltier-based temperature control device) until used.
A length of capillary glass (1B150F-4, WPI) was dipped into the cell suspension solution, such that ˜3 cm column of fluid was taken up by capillary action. A Ag/AgCl wire was dropped into the non-dipped end of the capillary also. The outside of the solution-filled end of the capillary was then dried and the capillary was loaded into the AutoPatch™.
Borosilicate glass patch pipettes (from 1.5 mm OD, thin-walled filamented, GC150-TF capillary glass, Harvard) were pulled using a DMZ pipette puller (Zeitz Instruments), and were back-filled using the internal pipette solution, being careful that no bubbles remain at the tip or in the body of the pipette. Patch pipettes typically had resistances of 2.3-3.5 MΩ. Once filled, the pipette tip and a proportion of the shaft (˜15 mm) were dipped into Sigmacote (Sigma). The recording pipette was then loaded into the AutoPatch™ Automated patch-clamping was initiated by the operator, but thereafter AutoPatch.exe continued the experiment providing that pre-set conditions and criteria were satisfied.
Whole cell patch-clamp recordings were made using the AutoPatch™ rig, which incorporated an EPC9 amplifier (HEKA, Germany) under control of Pulse software (v8.54, HEKA, Germany), a motion controller with 2 translators (Newport, UK), valve controller (VF1) and a c-level suction device all at room temperature (22-24° C.). This equipment was completely under the control of AutoPatch.exe and operator intervention was only made when there was a requirement to refill the drug reservoirs or to prevent the loss of a cell due to a technical error. Cells with an Rseries greater than 18 MΩ were discounted from the experiment.
Qualification stages prior to perfusion and drug application ensured that the observed current met the criteria for the experiment. Only those cells with an IK>500 pA were used for experiments. Cells were continuously perfused with external solution at a flow rate of 1.8-2 ml/minute. […] Online analysis of the hKv1.5 current during the application of compounds was performed by the AutoPatch™ software. Voltage-step protocols and analysis of data was performed as described for conventional electrophysiology.
Electrophysiology voltage-step protocols and analysis of data was performed as follows. Data was sampled at 5 kHz, and filtered with a −3 dB bandwidth of 2.5 kHz. Cells were held at a voltage of −80 mV. Currents were evoked to a voltage step for 1000 ms in duration at 0 mV every 5 s. Currents were analysed using Pulsefit software (v8.54, HEKA, Germany), with the total charge measured during the whole of the voltage step. All other plots were produced using Igor Pro (WaveMetrics).

human Kv1.3 = target: T1, human Kv1.3 (Homo sapiens, UniProt P22001); assay: Kv1.3 Autopatch electrophysiology (whole cell patch-clamp, inhibition of charge movement); format: cell-based; conditions: compound at 1 μM; cells stably transfected with human Kv1.3; room temperature; total charge during step to +30 mV relative to control; read-out: hKv1.3 % inh.
T1 construct: expressed in transfected cells; host or cells: stably transfected cells grown in medium for CHO cells
T1 sequence (P22001 whole entry): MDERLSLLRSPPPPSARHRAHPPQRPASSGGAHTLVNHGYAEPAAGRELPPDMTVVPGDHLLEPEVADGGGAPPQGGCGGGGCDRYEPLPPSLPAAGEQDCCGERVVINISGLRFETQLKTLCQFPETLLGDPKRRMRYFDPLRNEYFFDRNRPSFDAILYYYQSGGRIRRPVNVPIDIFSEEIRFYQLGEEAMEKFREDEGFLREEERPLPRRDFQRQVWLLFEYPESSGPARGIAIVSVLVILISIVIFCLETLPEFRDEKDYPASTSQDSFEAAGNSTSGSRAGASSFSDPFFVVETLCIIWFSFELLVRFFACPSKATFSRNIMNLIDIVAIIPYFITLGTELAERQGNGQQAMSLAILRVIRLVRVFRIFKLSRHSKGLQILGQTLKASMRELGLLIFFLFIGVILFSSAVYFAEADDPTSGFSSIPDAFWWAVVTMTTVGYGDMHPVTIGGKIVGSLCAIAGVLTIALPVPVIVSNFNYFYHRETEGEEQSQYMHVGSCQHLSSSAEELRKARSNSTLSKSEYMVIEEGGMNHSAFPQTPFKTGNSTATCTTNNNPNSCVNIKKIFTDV
In short: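 Whole-cell AutoPatch recordings were made at room temperature from cells held at −80 mV, with 500 ms steps to +30 mV every 15 s. The bath contained 10 mM KCl, pH 7.4, and the pipette K-gluconate/EGTA, pH 7.2.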

Chain of hKv1.5 (P22460 whole entry): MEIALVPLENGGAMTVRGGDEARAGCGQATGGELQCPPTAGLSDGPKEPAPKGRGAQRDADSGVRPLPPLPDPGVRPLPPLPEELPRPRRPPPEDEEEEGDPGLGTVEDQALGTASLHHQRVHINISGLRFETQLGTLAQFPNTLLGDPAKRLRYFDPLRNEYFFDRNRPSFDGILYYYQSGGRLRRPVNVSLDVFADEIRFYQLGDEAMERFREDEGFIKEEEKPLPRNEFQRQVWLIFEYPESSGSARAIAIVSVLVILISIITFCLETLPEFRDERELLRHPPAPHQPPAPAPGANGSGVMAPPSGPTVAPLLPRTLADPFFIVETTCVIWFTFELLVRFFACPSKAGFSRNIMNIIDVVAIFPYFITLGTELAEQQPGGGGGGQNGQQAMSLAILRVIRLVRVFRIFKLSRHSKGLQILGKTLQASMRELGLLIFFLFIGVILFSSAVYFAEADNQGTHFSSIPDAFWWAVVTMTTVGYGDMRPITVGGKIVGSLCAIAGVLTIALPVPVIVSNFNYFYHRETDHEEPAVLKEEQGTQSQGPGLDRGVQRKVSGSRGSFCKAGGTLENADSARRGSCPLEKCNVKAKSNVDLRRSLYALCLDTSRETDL

inhibition at 1 µM (hKv1.5): 40.1%
inhibition at 1 µM (human Kv1.3): 87%
SMILES: O=C(c1ccc(N(Cc2ccccc2)S(=O)(=O)c2ccccc2)cc1)N1CCC(O)(Cc2ccccc2)CC1 [Example 59, N-Benzyl-N-[4-(4-benzyl-4-hydroxy-piperidine-1-carbonyl)-phenyl]-benzenesulfonamide]

inhibition at 1 µM (hKv1.5): 62.9%
inhibition at 1 µM (human Kv1.3): 66%
SMILES: Cc1nn(C)cc1S(=O)(=O)N(Cc1ccccc1)c1ccc(C(=O)N2CCN(c3ccccc3)CC2)cc1 [Example 46, 1,3-Dimethyl-1H-pyrazole-4-sulfonic acid benzyl-[4-(4-phenyl-piperazine-1-carbonyl)-phenyl]-amide]

inhibition at 1 µM (hKv1.5): 40.8%
inhibition at 1 µM (human Kv1.3): 76%
SMILES: CN1CCN(C(=O)c2ccc(N(Cc3ccccc3)S(=O)(=O)c3ccn(C)n3)cc2)CC1c1ccccc1 (centres unmarked) [Example 90, 1-Methyl-1H-pyrazole-3-sulfonic acid benzyl-[4-(4-methyl-3-phenyl-piperazine-1-carbonyl)-phenyl]-amide]

inhibition at 1 µM (hKv1.5): 89.6%
inhibition at 1 µM (human Kv1.3): 92%
SMILES: COc1cc(N(Cc2ccccc2)S(=O)(=O)c2ccccc2)ccc1C(=O)N1CCN(c2ccccc2)CC1 [Example 54, N-Benzyl-N-[3-methoxy-4-(4-phenyl-piperazine-1-carbonyl)-phenyl]-benzenesulfonamide]

inhibition at 1 µM (hKv1.5): 56%
inhibition at 1 µM (human Kv1.3): 62%
SMILES: O=C(c1ccc(N(Cc2ccc(Cl)cc2)S(=O)(=O)c2cccnc2)cc1)N1CCCCC1 [Example 87, Pyridine-3-sulfonic acid (4-chloro-benzyl)-[4-(piperidine-1-carbonyl)-phenyl]-amide]

inhibition at 1 µM (hKv1.5): 50%
inhibition at 1 µM (human Kv1.3): 76%
SMILES: Cc1cc(C(=O)N2CCN(c3ccccc3)CC2)ccc1N(Cc1ccccc1)S(=O)(=O)c1cn(C)cn1 [Example 49, 1-Methyl-1H-imidazole-4-sulfonic acid benzyl-[2-methyl-4-(4-phenyl-piperazine-1-carbonyl)-phenyl]-amide]

inhibition at 1 µM (hKv1.5): 52.4%
inhibition at 1 µM (human Kv1.3): 64%
SMILES: Cn1cnc(S(=O)(=O)N(Cc2ccc(Cl)cc2)c2ccc(C(=O)N3CCCC(Oc4ccccc4)C3)cc2)c1 (centres unmarked) [Example 62, 1-Methyl-1H-imidazole-4-sulfonic acid (4-chloro-benzyl)-[4-(3-phenoxy-piperidine-1-carbonyl)-phenyl]-amide]

inhibition at 1 µM (hKv1.5): 47%
inhibition at 1 µM (human Kv1.3): 94%
SMILES: Cn1nccc1S(=O)(=O)N(Cc1ccccc1)c1ccc(C(=O)N2CCOC(c3ccccc3)C2)cc1 (centres unmarked) [Example 85, 2-Methyl-2H-pyrazole-3-sulfonic acid benzyl-[4-(2-phenyl-morpholine-4-carbonyl)-phenyl]-amide]

inhibition at 1 µM (hKv1.5): 43.6%
inhibition at 1 µM (human Kv1.3): 76%
SMILES: Cn1cnc(S(=O)(=O)N(Cc2cccc(F)c2)c2ccc(C(=O)N3CCN(c4ccccc4)CC3)cc2)c1 [Example 44, 1-Methyl-1H-imidazole-4-sulfonic acid (3-fluoro-benzyl)-[4-(4-phenyl-piperazine-1-carbonyl)-phenyl]-amide]

inhibition at 1 µM (hKv1.5): 93.8%
inhibition at 1 µM (human Kv1.3): 42%
SMILES: O=C(c1ccc(N(Cc2ccccc2)S(=O)(=O)c2ccccc2)c(F)c1)N1CCN(c2ccccc2)CC1 [Example 53, N-Benzyl-N-[2-fluoro-4-(4-phenyl-piperazine-1-carbonyl)-phenyl]-benzenesulfonamide]

inhibition at 1 µM (hKv1.5): 69%
inhibition at 1 µM (human Kv1.3): 55%
SMILES: Cn1cnc(S(=O)(=O)N(Cc2ccc(F)cc2)c2ccc(C(=O)N3CCOC(c4ccccc4)C3)cc2)c1 (centres unmarked) [Example 66, 1-Methyl-1H-imidazole-4-sulfonic acid (4-fluoro-benzyl)-[4-(2-phenyl-morpholine-4-carbonyl)-phenyl]-amide]

inhibition at 1 µM (hKv1.5): 56.8%
inhibition at 1 µM (human Kv1.3): 69%
SMILES: Cn1cnc(S(=O)(=O)N(Cc2ccccc2)c2ccc(C(=O)N3CCN(c4ccccc4)CC3)cc2F)c1 [Example 50, 1-Methyl-1H-imidazole-4-sulfonic acid benzyl-[2-fluoro-4-(4-phenyl-piperazine-1-carbonyl)-phenyl]-amide]

The remaining lines, values behind:

SMILES: CC1(C)CCc2cc(S(=O)(=O)N(Cc3ccccc3)c3ccc(C(=O)N4CCN(c5ccccc5)CC4)cc3)ccc2O1 [Example 39, 2,2-Dimethyl-chroman-6-sulfonic acid benzyl-[4-(4-phenyl-piperazine-1-carbonyl)-phenyl]-amide]
inhibition at 1 µM (hKv1.5): 58.9%
inhibition at 1 µM (human Kv1.3): 47%

SMILES: Cc1ccc(CN(c2ccc(C(=O)N3CCN(c4ccccc4)CC3)cc2)S(=O)(=O)c2cn(C)cn2)cc1 [Example 43, 1-Methyl-1H-imidazole-4-sulfonic acid (4-methyl-benzyl)-[4-(4-phenyl-piperazine-1-carbonyl)-phenyl]-amide]
inhibition at 1 µM (hKv1.5): 46.4%
inhibition at 1 µM (human Kv1.3): 78%

SMILES: O=C(c1ccc(N(Cc2ccccc2)S(=O)(=O)c2cc(Cl)cc(Cl)c2)cc1)N1CCN(c2ccccc2)CC1 [Example 29, N-Benzyl-3,5-dichloro-N-[4-(4-phenyl-piperazine-1-carbonyl)-phenyl]-benzenesulfonamide]
inhibition at 1 µM (hKv1.5): 75.3%
inhibition at 1 µM (human Kv1.3): 70%

SMILES: N#Cc1ccccc1S(=O)(=O)N(Cc1ccccc1)c1ccc(C(=O)N2CCN(c3ccccc3)CC2)cc1 [Example 24, N-Benzyl-2-cyano-N-[4-(4-phenyl-piperazine-1-carbonyl)-phenyl]-benzenesulfonamide]
inhibition at 1 µM (hKv1.5): 71.9%
inhibition at 1 µM (human Kv1.3): 84%

SMILES: COc1ccc(S(=O)(=O)N(Cc2ccccc2)c2ccc(C(=O)N3CCN(c4ccccc4)CC3)cc2)cc1OC [Example 14, N-Benzyl-3,4-dimethoxy-N-[4-(4-phenyl-piperazine-1-carbonyl)-phenyl]-benzenesulfonamide]
inhibition at 1 µM (hKv1.5): 61.3%
inhibition at 1 µM (human Kv1.3): 69%

SMILES: Cc1ccc(CN(c2ccc(C(=O)N3CCN(c4ccccc4)CC3)cc2)S(=O)(=O)c2ccccc2)cc1 [Example 35, N-(4-Methyl-benzyl)-N-[4-(4-phenyl-piperazine-1-carbonyl)-phenyl]-benzenesulfonamide]
inhibition at 1 µM (hKv1.5): 68.9%
inhibition at 1 µM (human Kv1.3): 56%

SMILES: Cn1cnc(S(=O)(=O)N(Cc2ccccc2)c2ccc(C(=O)N3CCN(c4ccccc4)CC3)cc2)c1 [Example 25, 1-Methyl-1H-imidazole-4-sulfonic acid benzyl-[4-(4-phenyl-piperazine-1-carbonyl)-phenyl]-amide]
inhibition at 1 µM (hKv1.5): 58.8%
inhibition at 1 µM (human Kv1.3): 68%

SMILES: Cc1ccc(S(=O)(=O)N(Cc2ccccc2)c2ccc(C(=O)N3CCN(c4ccccc4)CC3)cc2)cc1 [Example 16, N-Benzyl-4-methyl-N-[4-(4-phenyl-piperazine-1-carbonyl)-phenyl]-benzenesulfonamide]
inhibition at 1 µM (hKv1.5): 48.1%
inhibition at 1 µM (human Kv1.3): 77%

SMILES: Cn1cnc(S(=O)(=O)N(Cc2ccccc2)c2ccc(CN3CCN(c4ccccc4)CC3)cc2)c1 [Example 8, 1-Methyl-1H-imidazole-4-sulfonic acid benzyl-[4-(4-phenyl-piperazin-1-ylmethyl)-phenyl]-amide]
inhibition at 1 µM (hKv1.5): 56.7%
inhibition at 1 µM (human Kv1.3): 90%

SMILES: COc1cccc(CN(c2ccc(C(=O)N3CCN(c4ccccc4)CC3)cc2)S(=O)(=O)c2ccccc2)c1 [Example 33, N-(3-Methoxy-benzyl)-N-[4-(4-phenyl-piperazine-1-carbonyl)-phenyl]-benzenesulfonamide]
inhibition at 1 µM (hKv1.5): 55.7%
inhibition at 1 µM (human Kv1.3): 56%
